The record followed here is US20250376481A1, “POLYCYCLIC CARBAMOYL PYRIDONE DERIVATIVE, PREPARATION METHOD THEREFOR AND PHARMACEUTICAL COMPOSITION THEREOF” (NANJING AIDEA PHARMACEUTICAL TECHNOLOGY CO., LTD., priority 2021, published 2025).

The term AUC(0-inf) denotes the area under the concentration-time curve extrapolated to infinity. As a reminder, the AUC(0-t) is exposure summed from dosing to a finite time, without extrapolation to infinity. As a reminder, the Cmax is the maximum level reached in the sampled fluid or tissue. The MRT is a mean duration of stay, worked out from the concentration-time curve. As usually defined, the Tmax is the time from dosing to the highest level. One may read the half-life as the time in which the quantity being followed falls by half. Low values mean rapid decline, high ones slow decline. By bioavailability is commonly meant dose-corrected exposure relative to a reference, in per cent. As a reminder, the IC50 is the concentration needed to halve the response being measured.

Each structure is given as a SMILES string.

A short description of one data set: in vivo. On the set-up: species or system Crab-eating macaques (Macaca fascicularis). To be noted: male, cynomolgus monkey, po. The protocol: Crab-eating macaques were used as test animal, the LC-MS/MS was used to determinate the drug concentration at different times in the plasma of crab-eating macaques, who had been administered with compound 1 via gavage (PO). The pharmacokinetic behaviors of compounds of present disclosure in crab-eating macaques were studied and their pharmacokinetic characteristics were evaluated.
Crab-eating macaques (Macaca fascicularis), common grade, male, approximately 2.5-4 years old, 2-5 kg weight, 3 in each group.
Compound 1 and a solid substrate (hydroxypropyl methylcellulose acetate succinate) are dissolved in an organic solvent, and the solvent was removed by heating evaporation, or removed by a spray dryer to obtain compound 1 loaded on the solid substrate.
Compound 1 loaded on the solid substrate, which was obtained according to the above steps, was slowly added to a suitable container with approximately 80% final volume of vehicle while stirring. Stirred until it is visually uniform, and if necessary, the formulation shall be subjected to ultrasonic treatment. Vehicle was added to give the desired concentration. The obtained formulation shall be consecutively stirred until a visually uniform formulation was obtained, and if necessary, the formulation shall be subjected to ultrasonic treatment. The administration concentration with 20 mg/mL API concentration was prepared, and the preparation method for above vehicle was: approximately 30% total volume of purified water was added to an suitable container, and heated up to approximately 80° C.-90° C., the required volume of Tween 80 was added slowly to the container, while stirred until visually uniform. Purified water was added to the final volume. Stirred until a visually uniform solution was obtained.
Crab-eating macaques were fast overnight and given free access to water. […] Feeding was resumed 2 hours after administration.
For crab-eating macaques administered by gavage, 20 μL blood were collected from the veins in hind limb before administration and 0.25, 0.5, 1, 2, 4, 8, 24, 48, 72 and 96 hours after administration, respectively, and placed in EDTA-K2 anticoagulant blood collection tubes, and then the blood would be placed on ice until centrifuged to obtain plasma samples. The plasma samples were centrifuged at 4° C. (3500 rpm, 10 min), and after separation, the plasma samples were transferred to EP tubes and stored at −80° C. for detection.
The level of tested compounds in the plasma of crab eating macaques, who had been orally administrated with different concentrations of drug were determinated: 10 μL macaque blood at each time point after administration was taken, 100 μL methanol containing an internal standard (100 ng/mL) was added, vortex mixed for 1 minute, centrifuged at 4° C. (12000 rmp, 5 minutes), and 1 μL supernatant was taken from the plasma samples for LC-MS/MS analysis.

Data set [1] can be described thus: PK test of compounds (mouse). In kind it is in vivo, ICR mice. The protocol:
The mice were not fed until 5 pm on the day before administration, and fasted overnight with water. The mice in Group IV were administered with 2 mg/kg, while those in Group PO were administered with 10 mg/kg. Feeding was resumed 2 hours after administration. For mice administered by gavage, 20 μL blood was collected from the saphenous vein in calf before administration and 0.25, 0.5, 1, 2, 4, 8, and 24 hours after administration, respectively, and placed in EDTA-K2 anticoagulant blood collection tubes, and then the blood would be placed on ice until centrifuged to obtain plasma samples. The plasma samples were centrifuged at 4° C. (3500 rpm, 10 min), and after separation, the samples were transferred to EP tubes and stored at −80° C. for detection. For mice admistrated by intravenous injection, 20 μL blood was collected from the saphenous vein in calf before administration and 0.0833, 0.25, 0.5, 1, 2, 4, 8 and 24 hours after administration, respectively, and placed in EDTA-K2 anticoagulant blood collection tubes, and then the blood would be placed on ice until centrifuged to obtain a plasma sample. The plasma samples were centrifuged at 4° C. (3500 rpm, 10 min), and after separation, the samples were transferred to EP tubes and stored at −80° C. for detection. The level of tested compounds in blood plasma of mice, who had orally administrated with different concentrations of drugs were determinated: 10 μL mouse blood at each time point after administration was taken, 100 μL methanol containing an internal standard (100 ng/mL) was added, vortex mixed for 1 minute, centrifuged at 4° C. (12000 rmp, 5 minutes), and 1 μL supernatant was taken from the plasma samples for LC-MS/MS analysis.

Another data set has as its target HIV-1 integrase (Human immunodeficiency virus type 1 group M subtype B, UniProt P04585). The data set is described as follows: Integrase activity test (HIV-1 Integrase Assay Kit EZ-1700).
The nature of data set [2]: Oil-water partition coefficient (n-octanol / pH 7.4 phosphate buffer). It is filed as physicochemical. To be noted: n-octanol / pH 7.4 phosphate buffer, pH 7.4; read-out: Log D (pH 7.4). The protocol:
• a) To a 5 mL glass bottle was added 1 mL n-octanol and 1 mL pH 7.4 phosphate buffer, respectively. • b) The compound was added to a DMSO solution to prepare a compound stock solution with a concentration of 10 mM, and then 20 μL compound stock solution was added to the mixture solution of n-octanol and phosphate buffer. • c) Shaken at room temperature for 1 hour at a rate of 300/minute. • d) Kept for 30 minutes, and after the solution was completely layered, the upper and lower layers of the solution were taken separately to a 96 well deep well plate, and LC-MS/MS was used for detection via injection. • e) The aliquots of 1-octanol and aqueous solution were diluted consecutively with DMSO to obtain the final sample for LC-MS/MS analysis. Three consecutive dilutions were carried on every 1-octanol phase with covering a concentration range of 2500 fold. Every final aqueous phase was diluted consecutively twice with covering a concentration range of 100 fold. The MS peak areas of these solutions were used to generate log (peak area) based on the log (relative concentration) calibration line.
[formula] • Coct=sample concentration in n-octanol • Caq=sample concentration in pH 7.4 phosphate buffer

Experimental for HIV-1 integrase: A non-radioactive assay method, an integrase assay kit, was used to measure integrase activity quantitatively.
Each component was prepared according to the instructions of the kit; preparation of test sample, 5 mM DMSO solution was prepared for backup, working solution was prepared according to the initial final concentration determined at the time of method establishment, with a 4-fold gradient dilution and 10 concentrations.
• (1) The working solution of sample was prepared according to the initial concentration determinated during the methodology establishment process; • (2) Reagents were prepared according to the methods provided in the kit; • (3) DS DNA coating—blocking—addition of integrase solution—addition of sample—addition of TS DNA—addition of HRP antibody-addition of TMB peroxidase substrate—TMB termination reaction-detection of light absorption value at 450 nm.
The software Graphpad Prism 8.0 was applied and the calculation equation of Log (inhibitor) vs. response variable slope was used to fit the IC50 curve.

In the data set “in vivo” (30 mg/kg), `C[C@H]1N2C(=O)c3c(O)c(=O)c(C(=O)NCc4ccc(F)cc4F)cn3C[C@@H]2OCC12CC2` [Compound 1] had an AUC(0-inf) of 23100 ± 3840 ng·h/mL, an AUC(0-t) of 22900 ± 3810 ng·h/mL, a Cmax of 1800 ± 534 ng/mL and an MRT of 14.1 ± 2.68 h. In the data set “in vivo” (30 mg/kg), the time of peak concentration (Tmax) was found to be 4 h and the half-life is 15.7 ± 5.49 h. Moreover, in the data set “in vivo” (100 mg/kg), the total exposure AUC(0-inf) is 164000 ng·h/mL, the area under the curve AUC(0-t) stood at 140000 ± 44200 ng·h/mL, the concentration peaked (Cmax) at 4040 ± 871 ng/mL and the MRT worked out at 26.9 h. Moreover, in the data set “in vivo” (100 mg/kg), the time to peak (Tmax) was determined as 18.7 ± 25.4 h and the half-life was 19.8 ± 4.78 h. Further, in data set [1] (PK test in mice), the “bioavailability (in words)” value is listed as “good bioavailability”. In data set [1] (male, mouse, plasma, ICR mice, PO 10 mg/kg), this compound showed a half-life of 4.37 ± 0.47 h. The compound also gave a bioavailability in data set [1] (male, mouse, plasma, ICR mice, PO 10 mg/kg (IV 2 mg/kg)) of 57%. Also, at HIV-1 integrase, the half-maximal inhibitory concentration (IC50) amounted to 9.19 nM. Also, in data set [2], the logD worked out at 2.2.
